Paper PMC12655252, “Synthesis of 1H-Pyrrolo[3,2-g]isoquinoline Derivatives as Ligands Targeting Haspin Kinase” (Molecules, 2025)

Experiments:
Assay type in all cases: biochemical
HsCDK9/CyclinT = biological target: T1, HsCDK9/CyclinT (Homo sapiens, UniProt P50750); assay: ADP-Glo in vitro kinase inhibition assay, CDK9/CyclinT; details: 10 μM ATP, read-out: CDK9 % residual activity; for remaining activity at 1 µM: 1 μM compound; for remaining activity at 10 µM: 10 μM compound
T1 construct: made in house; host or cells: Sf9 insect cells (baculovirus)
T1 sequence (P50750 whole entry): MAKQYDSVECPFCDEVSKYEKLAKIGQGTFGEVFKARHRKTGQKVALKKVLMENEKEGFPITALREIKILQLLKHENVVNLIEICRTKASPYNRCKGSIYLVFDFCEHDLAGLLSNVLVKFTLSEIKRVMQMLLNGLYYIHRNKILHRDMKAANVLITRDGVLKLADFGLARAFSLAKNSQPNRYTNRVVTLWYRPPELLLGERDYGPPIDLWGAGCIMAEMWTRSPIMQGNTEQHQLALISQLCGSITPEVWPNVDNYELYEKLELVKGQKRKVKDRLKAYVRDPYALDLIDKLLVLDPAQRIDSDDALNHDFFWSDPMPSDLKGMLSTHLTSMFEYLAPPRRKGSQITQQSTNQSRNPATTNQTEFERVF
T1 sequence (O60563 whole entry partner): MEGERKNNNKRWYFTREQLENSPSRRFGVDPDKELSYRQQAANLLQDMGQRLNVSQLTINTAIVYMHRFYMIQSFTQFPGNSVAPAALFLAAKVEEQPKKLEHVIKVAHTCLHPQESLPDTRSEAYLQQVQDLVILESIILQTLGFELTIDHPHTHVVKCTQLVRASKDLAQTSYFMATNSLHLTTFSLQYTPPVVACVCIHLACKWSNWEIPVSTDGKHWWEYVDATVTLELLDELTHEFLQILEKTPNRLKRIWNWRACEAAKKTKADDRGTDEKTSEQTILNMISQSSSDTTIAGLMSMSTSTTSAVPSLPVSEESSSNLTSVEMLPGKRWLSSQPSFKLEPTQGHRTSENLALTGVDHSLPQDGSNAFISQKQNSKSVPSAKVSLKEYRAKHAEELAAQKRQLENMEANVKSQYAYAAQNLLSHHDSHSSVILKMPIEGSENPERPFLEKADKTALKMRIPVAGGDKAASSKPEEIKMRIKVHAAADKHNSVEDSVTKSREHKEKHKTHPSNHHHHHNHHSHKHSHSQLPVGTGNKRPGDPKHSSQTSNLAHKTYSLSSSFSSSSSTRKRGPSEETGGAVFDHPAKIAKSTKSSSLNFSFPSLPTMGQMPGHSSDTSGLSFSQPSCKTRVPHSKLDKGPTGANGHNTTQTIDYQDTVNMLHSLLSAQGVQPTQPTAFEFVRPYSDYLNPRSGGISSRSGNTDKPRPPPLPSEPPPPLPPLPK
Protocol: (§1) We previouly reported that substitution at the 3-position with halogen atoms or pyridinyl or formyl groups was compatible with high potency toward Haspin kinase. To check if the current structural changes were in line with potent Haspin inhibition and high selectivity, enabling consideration of these compounds as possible targeting ligands for the PROTAC approach, compounds 2, 3, 8–11, and 15–17 were evaluated toward a panel of eight protein kinases, including Haspin, as well as other kinases known to be frequently cross-inhibited (CLK1, DYRK1A, CDK9/Cyclin T, GSK-3β, CK1ε, CDK5/p25, and Pim1) (Table 1). The percentage of residual kinase activity was evaluated at 10 μM and 1 μM compound concentrations. […].
(§2) Kinase inhibition was tested in 384-well plates using the ADP-GloTM assay kit (Promega, Madison, WI, USA) according to the procedure recommended by the manufacturer. Reactions were set up in a final volume of 6 μL in an appropriate kinase buffer (10 mM MgCl2, 1 mM EGTA, 1 mM DTT, 25 mM Tris-HCl pH 7.5, 50 μg/mL heparin) with either protein or peptide as the substrate in the presence of 10 μM ATP. To stop the kinase reaction, 6 μL of ADP-GloTM Kinase Reagent was added after 30 min at 30 °C. Then, after 50 min of incubation at room temperature (RT), 12 μL of Kinase Detection Reagent was added. The transmitted signal was measured after 1 h at RT using the Envision (Perkin Elmer, Waltham, MA, USA) microplate luminometer and expressed in relative light units (RLU). In order to determine the half-maximal inhibitory concentration (IC50), all assays were performed in duplicate in the absence or presence of increasing doses of the tested compounds. GraphPad Prism10 software (GraphPad Software, San Diego, CA, USA) was used to fit dose–response curves and to determine the IC50 values. Kinase activities are given as percentages of maximal activity, i.e., measured in the absence of inhibitor. Peptide substrates were obtained from Proteogenix (Schiltigheim, France).
(§3) The following protein kinases were analyzed in this study: CDK5/p25 (human, vector pGEX-2T, expressed in bacteria; kindly provided by Dr. J. H. Wang) was assayed with 0.8 μg/μL of histone H1 as substrate; HsCDK9/CyclinT (NP_001252/KAI4065659, cloned in pTEFb vector, expressed by baculovirus in Sf9 insect cells) were assayed with 0.27 μg/μL of the following peptide: […], as substrate; HsCK1ε (NP_001885, cloned in pFAST-BAC vector, expressed in Sf9 insect cells) was assayed with 0.022 μg/μL of the following peptide: […]pAYSITA (“Sp” stands for phosphorylated serine) as CK1-specific substrate; HsGSK3β (AAH12760, cloned in pFAST-BAC, expressed by baculovirus in Sf9 insect cells) were assayed with 0.010 μg/μL of GS-1 peptide, a GSK-3-selective substrate ([…]pEDEEE); HsHaspin-kd (NP_114171, kinase domain, amino acids 470–798 cloned in pGEX-6P-3, expressed in bacteria) was assayed with 0.007 μg/μL of histone H3 (1–21) peptide ([…]) as substrate; Pim-1 (KAI4018123, expressed in bacteria) was assayed with 0.8 μg/μL of histone H1 as substrate; HsCLK1 (NP_004062, cloned in pFAST-BAC, expressed in Sf9 insect cells) was assayed with 0.027 μg/μL of the peptide: […]; RnDYRK1A-kd (Rattus norvegicus, amino acids 1–499, pGEX-2TK, expressed in bacteria, gift from Dr. W. Becker, Aachen, Germany) was tested in the presence of 0.033 μg/μL of the peptide: […].

Pim-1 = biological target: T2, Pim-1 (Homo sapiens, UniProt P11309); assay: ADP-Glo in vitro kinase inhibition assay, Pim-1; details: 10 μM ATP; for remaining activity at 1 µM: 1 μM compound; for remaining activity at 1 µM / remaining activity at 10 µM: read-out: PIM1 % residual activity; for IC50: read-out: PIM1 IC50; for remaining activity at 10 µM: 10 μM compound
T2 construct: made in house; host or cells: bacteria
T2 sequence (P11309 whole entry): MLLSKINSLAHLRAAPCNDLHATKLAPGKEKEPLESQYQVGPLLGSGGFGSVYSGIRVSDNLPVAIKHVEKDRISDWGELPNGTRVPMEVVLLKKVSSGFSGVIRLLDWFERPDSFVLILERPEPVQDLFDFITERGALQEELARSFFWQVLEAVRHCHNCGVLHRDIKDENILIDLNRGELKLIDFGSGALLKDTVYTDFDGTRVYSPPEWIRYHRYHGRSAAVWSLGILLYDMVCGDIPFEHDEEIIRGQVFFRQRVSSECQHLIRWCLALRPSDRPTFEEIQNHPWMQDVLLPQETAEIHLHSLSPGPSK
Protocol: as §1, §2, §3

HsHaspin-kd = biological target: T3, HsHaspin-kd (Homo sapiens, UniProt Q8TF76); assay: ADP-Glo in vitro kinase inhibition assay, Haspin; details: for remaining activity at 1 µM: 1 μM compound; for remaining activity at 1 µM / IC50 / remaining activity at 10 µM: 10 μM ATP, duplicate; for remaining activity at 1 µM / remaining activity at 10 µM: read-out: Haspin % residual activity; for remaining activity at 10 µM: 10 μM compound; for SI: selectivity index = IC50 second most inhibited kinase/IC50 Haspin: second most inhibited kinase named in parentheses below the value (PIM1 or CLK1)
T3 construct: kinase domain, amino acids 470–798 cloned in pGEX-6P-3; made in house; host or cells: bacteria
T3 sequence (Q8TF76 470-798): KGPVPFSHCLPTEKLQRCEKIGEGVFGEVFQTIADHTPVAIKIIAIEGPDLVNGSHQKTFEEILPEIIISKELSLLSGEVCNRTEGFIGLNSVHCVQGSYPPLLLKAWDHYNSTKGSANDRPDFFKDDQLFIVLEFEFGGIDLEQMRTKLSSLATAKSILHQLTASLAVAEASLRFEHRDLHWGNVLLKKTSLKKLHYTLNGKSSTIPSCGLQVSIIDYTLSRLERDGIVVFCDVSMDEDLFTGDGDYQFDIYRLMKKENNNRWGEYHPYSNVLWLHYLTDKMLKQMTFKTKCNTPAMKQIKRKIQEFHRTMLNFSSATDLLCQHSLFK
Protocol: as §1, §2, §3

HsCLK1 = biological target: T4, HsCLK1 (Homo sapiens, UniProt P49759); assay: ADP-Glo in vitro kinase inhibition assay, CLK1; details: 10 μM ATP; for remaining activity at 1 µM: 1 μM compound; for remaining activity at 1 µM / remaining activity at 10 µM: read-out: CLK1 % residual activity; for remaining activity at 10 µM: 10 μM compound
T4 construct: made in house; host or cells: Sf9 insect cells
T4 sequence (P49759 whole entry): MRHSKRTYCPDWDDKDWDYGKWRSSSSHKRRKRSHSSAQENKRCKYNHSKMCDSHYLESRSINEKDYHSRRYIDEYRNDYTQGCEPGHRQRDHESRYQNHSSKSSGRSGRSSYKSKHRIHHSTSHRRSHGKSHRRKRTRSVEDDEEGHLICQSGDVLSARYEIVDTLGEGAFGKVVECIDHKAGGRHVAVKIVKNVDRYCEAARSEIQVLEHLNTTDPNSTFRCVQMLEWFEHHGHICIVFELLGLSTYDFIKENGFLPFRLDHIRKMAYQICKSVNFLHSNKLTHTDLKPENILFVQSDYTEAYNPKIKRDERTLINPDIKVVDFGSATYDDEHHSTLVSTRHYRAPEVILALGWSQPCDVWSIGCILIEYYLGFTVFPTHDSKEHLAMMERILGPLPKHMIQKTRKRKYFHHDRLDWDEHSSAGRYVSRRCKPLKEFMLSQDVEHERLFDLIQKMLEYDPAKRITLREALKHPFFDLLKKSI
Protocol: as §1, §2, §3

RnDYRK1A-kd = biological target: T5, RnDYRK1A-kd (Rattus norvegicus, UniProt Q63470); assay: ADP-Glo in vitro kinase inhibition assay, DYRK1A; details: 10 μM ATP; for remaining activity at 1 µM: 1 μM compound; for remaining activity at 1 µM / remaining activity at 10 µM: read-out: DYRK1A % residual activity; for remaining activity at 10 µM: 10 μM compound
T5 construct: Rattus norvegicus, amino acids 1–499, pGEX-2TK; made in house; host or cells: bacteria
Protocol: as §1, §2, §3

HsCK1ε = biological target: T6, HsCK1ε (Homo sapiens, UniProt P49674); assay: ADP-Glo in vitro kinase inhibition assay, CK1ε; details: 10 μM ATP, read-out: CK1 % residual activity; for remaining activity at 1 µM: 1 μM compound; for remaining activity at 10 µM: 10 μM compound
T6 construct: made in house; host or cells: Sf9 insect cells
T6 sequence (P49674 whole entry): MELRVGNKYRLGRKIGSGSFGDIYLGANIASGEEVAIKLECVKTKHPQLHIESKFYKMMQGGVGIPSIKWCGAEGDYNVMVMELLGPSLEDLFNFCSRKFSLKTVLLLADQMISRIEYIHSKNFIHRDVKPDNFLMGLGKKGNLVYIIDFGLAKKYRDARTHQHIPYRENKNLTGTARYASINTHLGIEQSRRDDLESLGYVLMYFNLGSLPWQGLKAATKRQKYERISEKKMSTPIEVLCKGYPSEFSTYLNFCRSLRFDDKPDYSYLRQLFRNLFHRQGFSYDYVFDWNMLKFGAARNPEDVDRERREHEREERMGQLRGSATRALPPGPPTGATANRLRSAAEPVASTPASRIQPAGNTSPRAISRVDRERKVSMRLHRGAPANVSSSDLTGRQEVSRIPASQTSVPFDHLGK
Protocol: as §1, §2, §3

Structure (SMILES) | remaining activity at 1 µM (HsCDK9/CyclinT) [%] | remaining activity at 10 µM (HsCDK9/CyclinT) [%] | remaining activity at 1 µM (Pim-1) [%] | IC50 (Pim-1) [nM] | remaining activity at 10 µM (Pim-1) [%] | remaining activity at 1 µM (HsHaspin-kd) [%] | IC50 (HsHaspin-kd) [nM] | remaining activity at 10 µM (HsHaspin-kd) [%] | SI: selectivity index = IC50 second most inhibited kinase/IC50 Haspin (HsHaspin-kd) | remaining activity at 1 µM (HsCLK1) [%] | remaining activity at 10 µM (HsCLK1) [%] | remaining activity at 1 µM (RnDYRK1A-kd) [%] | IC50 (RnDYRK1A-kd) [nM] | remaining activity at 10 µM (RnDYRK1A-kd) [%] | remaining activity at 1 µM (HsCK1ε) [%] | remaining activity at 10 µM (HsCK1ε) [%] | IC50 (HsCLK1) [nM]
COC(=O)/C=C/c1c[nH]c2cc3cnccc3cc12 [Compound 8, Methyl (E)-3-(1H-Pyrrolo[3,2-g]isoquinolin-3-yl)prop-2-enoate] | 79 | 51 | 26 | 404 | 8 | 11 | 15.5 | 6 | 26.1 | 55 | 22 | 43 | 1130 | 16 | 90 | 77 | –
c1c[nH]c(-c2c[nH]c3cc4cnccc4cc23)c1 [Compound 17, 3-(1H-Pyrrol-2-yl)-1H-pyrrolo[3,2-g]isoquinoline] | 76 | 39 | 91 | – | 33 | 6 | 81.3 | 0 | – | 47 | 36 | 69 | – | 19 | 92 | 81 | –

Other lines, results leading:

remaining activity at 1 µM (HsCDK9/CyclinT) [%] | remaining activity at 10 µM (HsCDK9/CyclinT) [%] | remaining activity at 1 µM (Pim-1) [%] | IC50 (Pim-1) [nM] | remaining activity at 10 µM (Pim-1) [%] | remaining activity at 1 µM (HsHaspin-kd) [%] | IC50 (HsHaspin-kd) [nM] | remaining activity at 10 µM (HsHaspin-kd) [%] | SI: selectivity index = IC50 second most inhibited kinase/IC50 Haspin (HsHaspin-kd) | remaining activity at 1 µM (HsCLK1) [%] | remaining activity at 10 µM (HsCLK1) [%] | remaining activity at 1 µM (RnDYRK1A-kd) [%] | IC50 (RnDYRK1A-kd) [nM] | remaining activity at 10 µM (RnDYRK1A-kd) [%] | remaining activity at 1 µM (HsCK1ε) [%] | remaining activity at 10 µM (HsCK1ε) [%] | IC50 (HsCLK1) [nM] | Structure (SMILES)
– | – | 44 | 222 | 0 | 0 | 30.6 | 0 | > 7 | 32 | 4 | 39 | 324 | 1 | 100 | 48 | 503 | c1cc2cc3c(-c4cc[nH]n4)c[nH]c3cc2cn1 [Compound 15, 3-(1H-Pyrazol-3-yl)-1H-pyrrolo[3,2-g]isoquinoline]
83 | 44 | 17 | 93.7 | 7 | 7 | 10.6 | 1 | 8.8 | 59 | 18 | 15 | 212 | 0 | 78 | 63 | – | Nc1ccc(-c2c[nH]c3cc4cnccc4cc23)cn1 [Compound 3, 5-(1H-Pyrrolo[3,2-g]isoquinolin-3-yl)pyridin-2-amine]
– | – | 20 | – | 0 | 0 | 12.4 | 0 | 8.2 | 4 | 0 | 11 | 163 | 0 | 77 | 12 | 102 | c1cc2cc3c(-c4cn[nH]c4)c[nH]c3cc2cn1 [Compound 16, 3-(1H-Pyrazol-4-yl)-1H-pyrrolo[3,2-g]isoquinoline]
